One test deals with T1, human MCT1 (SLC16A1) (Homo sapiens, UniProt P53985).
T1 construct: host or cells: MDCK-II
T1 sequence (P53985 1-500): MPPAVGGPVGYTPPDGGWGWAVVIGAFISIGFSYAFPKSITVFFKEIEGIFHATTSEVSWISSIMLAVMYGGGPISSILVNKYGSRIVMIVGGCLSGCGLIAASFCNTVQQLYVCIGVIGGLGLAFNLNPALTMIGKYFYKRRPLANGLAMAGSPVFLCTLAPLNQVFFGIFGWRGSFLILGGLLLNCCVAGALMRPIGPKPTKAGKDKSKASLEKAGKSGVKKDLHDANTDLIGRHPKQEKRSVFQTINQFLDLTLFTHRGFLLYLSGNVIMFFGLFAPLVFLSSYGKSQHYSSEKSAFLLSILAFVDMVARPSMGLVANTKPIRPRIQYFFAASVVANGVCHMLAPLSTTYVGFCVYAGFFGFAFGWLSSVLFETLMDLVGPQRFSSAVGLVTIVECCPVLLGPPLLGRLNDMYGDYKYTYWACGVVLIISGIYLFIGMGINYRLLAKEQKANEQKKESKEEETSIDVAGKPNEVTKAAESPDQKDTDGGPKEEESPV
As to the kind of experiment: Inhibition of MCT1 uptake of probe substrate 2-thiophene glyoxylate in MDCK-II cells. The class given is cell-based. The method, then:
(§1) Transport studies with human PepT1 (SLC15A1), LAT1 (SLC7A5) and MCT1 (SLC16A1) were conducted in MDCK-II cells expressing the human transporter or control cells expressing a vector with Green Fluorescence Protein. Cells were transfected using a proprietary, transient transfection system (OPTI-EXPRESSION Technology, BioIVT). The results from the control cells were used to correct for substrate permeation by routes other than the transporter being investigated in the study. […] Specifically, Net Transporter Mediated Substrate Uptake (pmol/min/cm^2) = (Cellular accumulation in the presence of the transporter) − (Mean cellular accumulation in the absence of the transporter). MDCK-II cells were maintained in DMEM with low glucose and 10% FBS. Cells were used at passages up to 40 were seeded at 60,000 ± 10,000 cells/well on 96-well plates approximately 24 h before transfection, and transport assays were performed approximately 48 h after transfection. Transport studies in MDCK-II cells were conducted in 96-well insert plates with permeable membrane (0.4 µm) and receiver tray (Millipore MultiScreen Filter 96-well).
Transport studies with PepT1 were conducted in 96-well cell culture plate with wells containing a monolayer of MDCK-II cells grown on a permeable support and a corresponding 96-well receiver tray. Cell plates are maintained at 37 °C in 5% CO2 atmosphere prior to initiation of the transport experiment. Pre-incubation was conducted in HBSS, pH 7.4. The transport experiments were conducted in HBSS with Bis–Tris, pH 5.5, without phenol red. Both pre-incubation and incubation were conducted at 37 °C. All final assay solutions of probe substrate, reference inhibitor or test article contain 0.5% (v/v) DMSO (vehicle control). The culture plate insert […] was washed with warm HBSS three times and then blotted dry. The culture plate wells […] were washed with warm HBSS three times. 100 µL of 37 °C HBSS pH 7.4 pre-incubation buffer to the apical compartment as follows: for the probe substrate transport assay, the HBSS contains vehicle; for the reference inhibition assay, the HBSS contains the reference inhibitor at the required concentration; for the test article assays, the HBSS in each well contains test compound at the specified concentration. The plates were incubated at 37 °C with orbital shaking at approximately 60 rpm for the pre-incubation (30 min), aspirated and then 100 µL of the experimental buffer was added. […] Then a 30-µL sample was taken and mixed with 200 µL of scintillation fluid and scintillation counted (1450 Microbeta, Perkin-Elmer). […]

A further test concerns the target T2, human LAT1 (SLC7A5) (Homo sapiens, UniProt Q01650).
T2 construct: host or cells: MDCK-II
Put plainly: Inhibition of LAT1 uptake of probe substrate gabapentin in MDCK-II cells. The class given is cell-based. Particulars: probe gabapentin 10 µM; positive control JPH203 10 µM. The method, then:
as §1, with “Transport studies in MDCK-II cells were conducted in 96-well insert plates with permeable membrane (0.4 µm) and receiver tray (Millipore MultiScreen Filter 96-well).” left out
Transport studies with PepT1 were conducted in 96-well cell culture plate with wells containing a monolayer of MDCK-II cells grown on a permeable support and a corresponding 96-well receiver tray. […] Then a 30-µL sample was taken and mixed with 200 µL of scintillation fluid and scintillation counted (1450 Microbeta, Perkin-Elmer). […]

T2 sequence (Q01650 whole entry): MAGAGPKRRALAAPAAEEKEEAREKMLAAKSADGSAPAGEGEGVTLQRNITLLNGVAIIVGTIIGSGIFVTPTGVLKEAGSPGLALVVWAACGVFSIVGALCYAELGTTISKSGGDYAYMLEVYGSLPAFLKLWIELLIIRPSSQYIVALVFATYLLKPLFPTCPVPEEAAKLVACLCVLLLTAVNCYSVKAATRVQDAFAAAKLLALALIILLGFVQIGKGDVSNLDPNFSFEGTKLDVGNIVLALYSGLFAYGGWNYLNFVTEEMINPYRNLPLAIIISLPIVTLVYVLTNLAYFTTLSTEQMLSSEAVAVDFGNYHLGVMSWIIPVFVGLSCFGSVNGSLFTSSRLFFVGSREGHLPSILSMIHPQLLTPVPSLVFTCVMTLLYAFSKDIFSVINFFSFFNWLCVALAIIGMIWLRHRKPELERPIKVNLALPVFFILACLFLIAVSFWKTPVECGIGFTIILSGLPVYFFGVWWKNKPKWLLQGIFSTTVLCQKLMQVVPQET
T2 sequence (P08195 102-630 partner): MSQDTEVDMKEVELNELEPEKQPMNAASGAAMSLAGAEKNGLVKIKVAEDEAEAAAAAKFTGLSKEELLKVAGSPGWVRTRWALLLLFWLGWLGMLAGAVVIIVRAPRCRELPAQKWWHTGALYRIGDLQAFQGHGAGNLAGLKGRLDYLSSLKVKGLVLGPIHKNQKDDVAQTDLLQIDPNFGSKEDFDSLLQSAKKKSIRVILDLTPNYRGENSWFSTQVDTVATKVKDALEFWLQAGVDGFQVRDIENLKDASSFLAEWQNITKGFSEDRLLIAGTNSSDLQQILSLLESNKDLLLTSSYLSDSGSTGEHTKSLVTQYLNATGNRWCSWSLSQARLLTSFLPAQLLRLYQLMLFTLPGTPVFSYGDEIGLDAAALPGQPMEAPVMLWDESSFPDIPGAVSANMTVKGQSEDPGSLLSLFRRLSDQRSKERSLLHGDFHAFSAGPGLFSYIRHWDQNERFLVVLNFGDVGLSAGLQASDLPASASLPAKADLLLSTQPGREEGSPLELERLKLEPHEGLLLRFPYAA

With `CC(=O)N[C@@H](CC(C)C)C(=O)O` [N-acetyl-L-leucine], the Ki on human MCT1 (SLC16A1) (Cheng-Prusoff equation from IC50, competitive inhibition assumed, read-out: affinity (Ki) MCT1) is 4.3 mM. Besides, on human MCT1 (SLC16A1) (probe 2-thiophene glyoxylate 500 µM, positive control phloretin 500 µM), the IC50 came to 15 mM. For the same compound, the “inhibitor of LAT1” value at human LAT1 (SLC7A5) was “nor an inhibitor”.

These data come from paper PMC8338929, “Acetylation turns leucine into a drug by membrane transporter switching” (Scientific Reports, 2021).
